Laboratory results as given in BigSolDB 2.1.

O=C([O-])/C=C/C(=O)O.[Na+]
solubility (mole fraction)
Settings | 283.15 K | 293.15 K | 303.15 K | 313.15 K | 323.15 K
in 1,4-dioxane | – | 0.000152 | 0.000165 | 0.000185 | 0.000234
in acetone | – | 2.81e-05 | 3.78e-05 | 4.83e-05 | 6.67e-05
in acetonitrile | 4.79e-05 | 5.26e-05 | 5.58e-05 | 6.32e-05 | 7.05e-05
in ethanol | 5.51e-05 | 6.4e-05 | 7.35e-05 | 8.74e-05 | 9.51e-05
in ethyl acetate | 9.88e-05 | 0.000121 | 0.000167 | 0.000219 | 0.000284
in isobutanol | 9.6e-06 | 1.26e-05 | 1.62e-05 | 2.36e-05 | 3.17e-05
in isopropanol | 2.3e-05 | 3.02e-05 | 4.08e-05 | 5.16e-05 | 6.76e-05
in methanol | 0.000417 | 0.000454 | 0.000495 | 0.000532 | 0.000572
in n-butanol | 2.25e-05 | 4.63e-05 | 5.97e-05 | 7.6e-05 | 9.43e-05
in n-pentanol | 3.44e-05 | 4.21e-05 | 4.93e-05 | 5.45e-05 | 6.5e-05
in n-propanol | 4.82e-05 | 6.3e-05 | 7.13e-05 | 8.71e-05 | 0.000102
in water | 0.00712 | 0.00908 | 0.0114 | 0.0138 | 0.0172
